Laboratory results reported in ChEMBL document CHEMBL2074341, “Biliary excretion of flavopiridol and its glucuronides in the isolated perfused rat liver: role of multidrug resistance protein 2 (Mrp2)” (Life Sci, 2003).

Target: ATP-binding cassette sub-family C member 2 (Rattus norvegicus, UniProt Q63120)
Experiment: TP_TRANSPORTER: transport activity, in vitro, Wistar vs TR-
Type: functional

ATP-binding cassette sub-family C member 2, sequence (Q63120 whole entry): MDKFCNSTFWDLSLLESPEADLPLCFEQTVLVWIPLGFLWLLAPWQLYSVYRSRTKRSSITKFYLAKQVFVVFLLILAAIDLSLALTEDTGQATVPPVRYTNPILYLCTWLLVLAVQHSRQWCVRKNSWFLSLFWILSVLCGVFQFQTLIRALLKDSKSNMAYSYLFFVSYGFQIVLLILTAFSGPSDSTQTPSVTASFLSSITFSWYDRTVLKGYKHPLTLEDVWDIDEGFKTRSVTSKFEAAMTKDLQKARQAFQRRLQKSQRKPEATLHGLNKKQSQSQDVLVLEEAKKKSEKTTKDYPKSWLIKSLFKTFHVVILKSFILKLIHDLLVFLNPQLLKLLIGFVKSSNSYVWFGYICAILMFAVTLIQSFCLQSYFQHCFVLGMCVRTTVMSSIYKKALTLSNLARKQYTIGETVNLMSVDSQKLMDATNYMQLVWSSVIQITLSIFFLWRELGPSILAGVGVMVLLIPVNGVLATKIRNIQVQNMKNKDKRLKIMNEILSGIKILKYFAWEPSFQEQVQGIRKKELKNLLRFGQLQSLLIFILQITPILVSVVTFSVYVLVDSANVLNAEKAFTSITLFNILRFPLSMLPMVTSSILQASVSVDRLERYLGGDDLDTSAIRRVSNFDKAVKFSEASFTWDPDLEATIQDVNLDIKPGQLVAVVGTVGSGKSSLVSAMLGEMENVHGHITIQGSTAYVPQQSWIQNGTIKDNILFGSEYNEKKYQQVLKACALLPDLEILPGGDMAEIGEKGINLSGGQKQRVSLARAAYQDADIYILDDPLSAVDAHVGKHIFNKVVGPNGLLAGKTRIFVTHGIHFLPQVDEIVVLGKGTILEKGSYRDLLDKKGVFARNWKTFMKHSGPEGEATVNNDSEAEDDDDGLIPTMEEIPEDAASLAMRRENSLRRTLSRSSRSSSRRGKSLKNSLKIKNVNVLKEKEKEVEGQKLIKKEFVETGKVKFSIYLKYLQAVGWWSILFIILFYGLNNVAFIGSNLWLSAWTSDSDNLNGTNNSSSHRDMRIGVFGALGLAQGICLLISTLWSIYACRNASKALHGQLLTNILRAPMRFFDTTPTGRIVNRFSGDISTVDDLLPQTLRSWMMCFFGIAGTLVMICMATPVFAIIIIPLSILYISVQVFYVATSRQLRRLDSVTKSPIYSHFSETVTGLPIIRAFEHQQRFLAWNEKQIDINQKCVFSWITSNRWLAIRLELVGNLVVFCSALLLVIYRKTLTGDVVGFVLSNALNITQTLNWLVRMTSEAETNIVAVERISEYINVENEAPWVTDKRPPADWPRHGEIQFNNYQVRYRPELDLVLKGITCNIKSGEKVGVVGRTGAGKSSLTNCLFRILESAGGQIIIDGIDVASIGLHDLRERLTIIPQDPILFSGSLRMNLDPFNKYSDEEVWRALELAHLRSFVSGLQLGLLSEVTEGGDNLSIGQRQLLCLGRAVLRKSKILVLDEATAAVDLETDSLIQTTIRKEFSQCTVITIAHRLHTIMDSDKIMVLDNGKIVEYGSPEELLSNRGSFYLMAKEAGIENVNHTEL

Row | SMILES | Activity
1 | CN1CC[C@H](c2c(O)cc(O[C@@H]3O[C@H](C(=O)O)[C@@H](O)[C@H](O)[C@H]3O)c3c(=O)cc(-c4ccccc4Cl)oc23)[C@H](O)C1 | substrate []
2 | CN1CC[C@H](c2c(O[C@@H]3O[C@H](C(=O)O)[C@@H](O)[C@H](O)[C@H]3O)cc(O)c3c(=O)cc(-c4ccccc4Cl)oc23)[C@H](O)C1 | substrate []
